Source: article PMC8119466, “A screen of FDA-approved drugs identifies inhibitors of protein tyrosine phosphatase 4A3 (PTP4A3 or PRL-3)” (Scientific Reports, 2021)
Where a name gives a salt, the structure may show the parent alone. Read-outs that look alike come from different tables or passages of the source.

Key:
Type in all cases: biochemical
recombinant PRL-2 = target: T1, recombinant PRL-2 (Homo sapiens, UniProt Q12974); test: In vitro phosphatase assay (DiFMUP hydrolysis), PRL-2;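 also: PRL-2 activity read as DiFMUP hydrolysis after 20 min at room temperature with drug, enzyme first pre-reduced at 4 °C for 20 min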
T1 construct: 6xHis (N, cleaved yes); made in house; host or cells: E. coli One Shot BL21 Star
T1 sequence (Q12974 1-167): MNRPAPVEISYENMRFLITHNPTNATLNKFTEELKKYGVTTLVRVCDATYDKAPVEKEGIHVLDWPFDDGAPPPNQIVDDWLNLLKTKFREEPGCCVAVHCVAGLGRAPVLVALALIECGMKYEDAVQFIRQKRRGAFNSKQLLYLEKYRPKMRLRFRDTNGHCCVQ

recombinant PRL-3 = target: T2, recombinant PRL-3 (Homo sapiens, UniProt O75365); test: In vitro phosphatase assay (DiFMUP hydrolysis), PRL-3; also: test concentration or dose not given here
T2 construct: 6xHis (N, cleaved yes); made in house; host or cells: E. coli One Shot BL21 Star

recombinant PRL-1 = target: T3, recombinant PRL-1 (Homo sapiens, UniProt Q93096); test: In vitro phosphatase assay (DiFMUP hydrolysis), PRL-1; also: test concentration or dose not given here
T3 construct: 6xHis (N, cleaved yes); made in house; host or cells: E. coli One Shot BL21 Star
T3 sequence (Q93096 1-173): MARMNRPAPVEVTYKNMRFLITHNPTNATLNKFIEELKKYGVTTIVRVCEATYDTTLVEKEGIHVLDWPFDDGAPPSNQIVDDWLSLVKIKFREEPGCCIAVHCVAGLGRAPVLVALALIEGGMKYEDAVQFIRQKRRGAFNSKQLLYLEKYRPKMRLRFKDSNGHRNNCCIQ

[1] = FDA-approved drug screen, compared to DMSO

T2 sequence (O75365 whole entry): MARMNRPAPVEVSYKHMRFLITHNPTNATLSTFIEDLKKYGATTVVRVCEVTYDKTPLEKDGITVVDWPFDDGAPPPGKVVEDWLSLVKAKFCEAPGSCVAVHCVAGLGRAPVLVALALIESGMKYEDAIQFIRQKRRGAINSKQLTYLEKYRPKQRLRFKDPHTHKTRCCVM

| Compound | % Phosphatase Activity (compared to DMSO) PRL-2 (recombinant PRL-2; [1]) | % Phosphatase Activity (compared to DMSO) PRL-3 (recombinant PRL-3; [1]) | % Phosphatase Activity (compared to DMSO) PRL-1 (recombinant PRL-1; [1]) | % Phosphatase Activity (compared to DMSO) PRL-2 (recombinant PRL-2) | % Phosphatase Activity (compared to DMSO) PRL-3 (recombinant PRL-3) | % Phosphatase Activity (compared to DMSO) PRL-1 (recombinant PRL-1) |
| --- | --- | --- | --- | --- | --- | --- |
| N#Cc1ccc(C(c2ccc(C#N)cc2)n2cncn2)cc1 [Letrozole] | 85% | 74% | 94% | – | – | – |
| CC(C)NC[C@H](O)COc1ccc(CCOCC2CC2)cc1.Cl [Levobetaxolol HCl] | – | – | – | 99% | 69% | 100% |
| CCCCN1CCCC[C@H]1C(=O)Nc1c(C)cccc1C [Levobupivacaine HCl] | 108% | 72% | 91% | – | – | – |
| C[C@H]1COc2c(N3CCN(C)CC3)c(F)cc3c(=O)c(C(=O)O)cn1c23 [Levofloxacin hydrate] | 306% | 316% | 322% | – | – | – |
| C[C@H]1COc2c(N3CCN(C)CC3)c(F)cc3c(=O)c(C(=O)O)cn1c23 [Levofloxacin] | 314% | 238% | 264% | – | – | – |
| C#C[C@]1(O)CC[C@H]2[C@@H]3CCC4=CC(=O)CC[C@@H]4[C@H]3CC[C@@]21CC [Levonorgestrel] | 101% | 78% | 94% | – | – | – |
| C[C@@H]1CC(=O)NN=C1c1ccc(NN=C(C#N)C#N)cc1 [Levosimendan] | 58% | 69% | 76% | – | – | – |
| CCN1CCC[C@H]1CNC(=O)c1cc(S(N)(=O)=O)ccc1OC [Levosulpiride] | 103% | 84% | 98% | – | – | – |
| CC1(C)Cc2c(-c3ccccc3)c(-c3ccc(Cl)cc3)c(CC(=O)O)n2C1 [Licofelone] | 85% | 69% | 80% | – | – | – |
| CCN(CC)CC(=O)Nc1c(C)cccc1C [Lidocaine hydrochloride] | 88% | 84% | 97% | – | – | – |
| CC#CCn1c(N2CCC[C@@H](N)C2)nc2c1c(=O)n(Cc1nc(C)c3ccccc3n1)c(=O)n2C [Linagliptin] | 131% | 100% | 115% | – | – | – |
| CCC[C@@H]1C[C@@H](C(=O)N[C@@H]([C@H]2O[C@H](SC)[C@H](O)[C@@H](O)[C@H]2O)[C@@H](C)O)N(C)C1 [Lincomycin HCl] | 111% | 76% | 109% | – | – | – |
| CC(=O)NC[C@H]1CN(c2ccc(N3CCOCC3)c(F)c2)C(=O)O1 [Linezolid] | 97% | 89% | 98% | – | – | – |
| Cc1ccc(F)c(NC(=O)Nc2ccc(-c3cccc4[nH]nc(N)c34)cc2)c1 [Linifanib (ABT-869)] | 151% | 133% | 133% | – | – | – |
| NCCCC[C@H](N[C@@H](CCc1ccccc1)C(=O)O)C(=O)N1CCC[C@H]1C(=O)O [Lisinopril] | 86% | 93% | 100% | – | – | – |
| C[C@H](CCC(=O)O)[C@H]1CC[C@H]2[C@@H]3CC[C@@H]4C[C@H](O)CC[C@]4(C)[C@H]3CC[C@]12C [Lithocholic acid] | 75% | 73% | 82% | – | – | – |
| CCn1cc(C(=O)O)c(=O)c2cc(F)c(N3CCNC(C)C3)c(F)c21 (stereo not drawn) [Lomefloxacin HCl] | 121% | 110% | 123% | – | – | – |

| Compound | % Phosphatase Activity (compared to DMSO) PRL-2 (recombinant PRL-2; [1]) | % Phosphatase Activity (compared to DMSO) PRL-3 (recombinant PRL-3; [1]) | % Phosphatase Activity (compared to DMSO) PRL-1 (recombinant PRL-1; [1]) | % Phosphatase Activity (compared to DMSO) PRL-2 (recombinant PRL-2) | % Phosphatase Activity (compared to DMSO) PRL-3 (recombinant PRL-3) | % Phosphatase Activity (compared to DMSO) PRL-1 (recombinant PRL-1) |
| --- | --- | --- | --- | --- | --- | --- |
| COc1ccc(CN2CCN(C(c3ccc(F)cc3)c3ccc(F)cc3)CC2)c(OC)c1OC.Cl.Cl [Lomerizine HCl] | 118% | 84% | 97% | – | – | – |
| O=C(NC1CCN(CCCCC2(C(=O)NCC(F)(F)F)c3ccccc3-c3ccccc32)CC1)c1ccccc1-c1ccc(C(F)(F)F)cc1 [Lomitapide Mesylate] | 119% | 125% | 129% | – | – | – |
| O=C(NC1CCN(CCCCC2(C(=O)NCC(F)(F)F)c3ccccc3-c3ccccc32)CC1)c1ccccc1-c1ccc(C(F)(F)F)cc1 [Lomitapide] | 118% | 117% | 124% | – | – | – |
| O=NN(CCCl)C(=O)NC1CCCCC1 [Lomustine] | 105% | 94% | 96% | – | – | – |
| NC(=O)N1CCC(CC(=O)N2CCC([C@H]3c4ncc(Br)cc4CCc4cc(Cl)cc(Br)c43)CC2)CC1 [Lonafarnib] | 103% | 97% | 97% | – | – | – |
| O=C(O)c1nn(Cc2ccc(Cl)cc2Cl)c2ccccc12 [Lonidamine] | 106% | 85% | 102% | – | – | – |
| CN(C)C(=O)C(CCN1CCC(O)(c2ccc(Cl)cc2)CC1)(c1ccccc1)c1ccccc1 [Loperamide HCl] | 99% | 81% | 105% | – | – | – |
| Cc1cccc(C)c1OCC(=O)N[C@@H](Cc1ccccc1)[C@@H](O)C[C@H](Cc1ccccc1)NC(=O)[C@H](C(C)C)N1CCCNC1=O [Lopinavir] | 101% | 62% | 90% | – | – | – |
| CCOC(=O)N1CCC(=C2c3ccc(Cl)cc3CCc3cccnc32)CC1 [Loratadine] | 90% | 65% | 89% | – | – | – |
| CN1C(C(=O)Nc2ccccn2)=C(O)c2sc(Cl)cc2S1(=O)=O [Lornoxicam] | 84% | 81% | 73% | – | – | – |
| CCCCc1nc(Cl)c(CO)n1Cc1ccc(-c2ccccc2-c2nnn[n-]2)cc1.[K+] [Losartan Potassium (DuP 753)] | 93% | 71% | 94% | – | – | – |
| Cc1c(F)cc(C(=O)NC2CC2)cc1-c1ccc(C(=O)NCC(C)(C)C)cn1 [Losmapimod (GW856553X)] | 66% | 103% | 91% | – | – | – |
| CCOC(=O)O[C@]1(C(=O)OCCl)CC[C@H]2[C@@H]3CCC4=CC(=O)C=C[C@]4(C)[C@H]3[C@@H](O)C[C@@]21C [Loteprednol etabonate] | 89% | 82% | 100% | – | – | – |
| CC[C@H](C)C(=O)O[C@H]1C[C@@H](C)C=C2C=C[C@H](C)[C@H](CC[C@@H]3C[C@@H](O)CC(=O)O3)[C@H]21 [Lovastatin] | 93% | 87% | 89% | – | – | – |
| CN1CCN(C2=Nc3ccccc3Oc3ccc(Cl)cc32)CC1 [Loxapine Succinate] | 110% | 90% | 96% | – | – | – |
| CC(C(=O)O)c1ccc(CC2CCCC2=O)cc1 (stereo not drawn) [Loxoprofen] | 83% | 102% | 109% | – | – | – |
